Experimental data from patent publication US20240228493A1, “LRRK2 INHIBITORS AND USES THEREOF” (NEURON23, ICN., priority 2022, published 2024).

What was measured:
[1] = target: T1, wt human LRRK2, catalytic site (Homo sapiens, UniProt Q5S007); experiment: TR-FRET LanthaScreen Tb Kinase Activity Assay, LRRK2 inhibition; type: biochemical; conditions: 2 nM wt human LRRK2, 400 nM peptide, 38 μM ATP
T1 construct: wt human LRRK2, catalytic site, catalytic site (ThermoFisher/USA); purchased ThermoFisher
T1 sequence (Q5S007 1879-2138 limits assumed): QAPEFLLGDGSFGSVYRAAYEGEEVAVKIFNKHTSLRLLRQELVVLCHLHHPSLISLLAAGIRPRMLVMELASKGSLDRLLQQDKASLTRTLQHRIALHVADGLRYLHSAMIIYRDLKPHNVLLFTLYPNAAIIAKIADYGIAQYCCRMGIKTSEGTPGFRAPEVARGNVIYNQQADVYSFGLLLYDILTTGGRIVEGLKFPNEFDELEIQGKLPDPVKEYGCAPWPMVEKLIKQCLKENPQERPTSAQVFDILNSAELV
Summary of the method: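 Fluorescein-ERM (LRRKtide) peptide (400 nM) phosphorylated by 2 nM wt human LRRK2 catalytic site with 38 μM ATP in 1× Kinase Buffer A, 120 min at room temperature after 15 min compound–kinase preincubation. EDTA plus Tb-anti-pLRRKtide antibody added, read after 60 min; inhibition from TR-FRET emission ratios.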

Caco-2 cells = experiment: Caco-2 bidirectional permeability; type: in vitro ADME; conditions: for Caco-2 ER: Efflux Ratio=Papp(BA)/Papp(AB); for Caco-2 A2B (10^−6 cm/s): apical to basolateral; for Caco-2 A2B (10^−6 cm/s) / Caco-2 B2A (10^−6 cm/s): 2 hours, pH 7.4; for Caco-2 B2A (10^−6 cm/s): basolateral to apical
Summary of the method: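 Caco-2 monolayers were grown 21–28 days on PET inserts and run in duplicate in HBSS with 10 mM HEPES, pH 7.4. Test compound was dosed bidirectionally at […] for 2 h at 37 °C; quantification was by LC-MS/MS. Papp and efflux ratio (B-A/A-B) were calculated, with lucifer yellow monolayer integrity checks.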

[2] = Human liver microsomal clearance (hLM Cl); type: in vitro ADME; conditions: values marked *: human liver microsomal Clearance
human hepatocyte = experiment: Human hepatocyte stability, predicted hepatic clearance (h-Hept CL predict); type: in vitro ADME; conditions: human hepatocytes, 0.5×10^6 cells/mL, 1 μM, values without asterisk
Summary of the method: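 Cryopreserved human hepatocytes, 0.5×10^6 viable cells/mL in William's E/GlutaMAX, incubated with compound at 1 μM final, duplicates. Sampling at 0-120 min, LC/MS/MS parent loss gives t1/2, converted to CLint and scaled to predicted hepatic clearance (well-stirred model, fub assumed 1).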

| Compound | IC50 [1] [nM] | Caco-2 ER (Caco-2 cells) | Caco-2 A2B (10^−6 cm/s) (Caco-2 cells) | Caco-2 B2A (10^−6 cm/s) (Caco-2 cells) | hLM Cl (mL/min/kg) [2] | hHep Cl (mL/min/kg) (human hepatocyte) |
| --- | --- | --- | --- | --- | --- | --- |
| Cc1n[nH]c2c1N=C(c1c(F)cccc1F)Nc1cnc(N3CCC[C@@](C)(C#N)C3)cc1-2 (single isomer, unassigned) [Example 12] | < 1 | L (L (Likely)”: ER≥2.5) | M (M (Moderate permeability)”: 1≤A2B (B2A)≤5) | H (H (High permeability)”: A2B (B2A)>5) | L* (L (Low Cl)”: Hep Cl (mL/min/kg)<6.3) | – |
| Fc1cccc(F)c1C1=Nc2cn[nH]c2-c2cc(N3CC[C@@H](C(F)F)C3)ncc2N1 (single isomer, unassigned) [Example 34] | < 1 | L (L (Likely)”: ER≥2.5) | M (M (Moderate permeability)”: 1≤A2B (B2A)≤5) | H (H (High permeability)”: A2B (B2A)>5) | I* (I (Intermediate Cl)”: 6.3≤Hep Cl (mL/min/kg)≤14.7) | – |
| Cc1n[nH]c2c1N=C(c1c(F)cccc1F)Nc1cnc(N3CCC(C)(C#N)CC3)cc1-2 [Example 17, 1-[8-(2,6-difluorophenyl)-5-methyl-3,4,7,9,12-pentazatricyclo[8.4.0.02,6]tetradeca-1(10),2(6),4,7,11,13-hexaen-13-y1]-4-methyl-piperidine-4-carbonitrile] | 1 to 100 | L (L (Likely)”: ER≥2.5) | H (H (High permeability)”: A2B (B2A)>5) | H (H (High permeability)”: A2B (B2A)>5) | I* (I (Intermediate Cl)”: 6.3≤Hep Cl (mL/min/kg)≤14.7) | – |
| Cc1n[nH]c2c1N=C(c1c(F)cccc1F)Nc1c-2cc(N2CCN(CCCF)CC2)nc1C [Example 32, 8-(2,6-difluorophenyl)-13-[4-(3-fluoropropyl)piperazin-1-y1]-5,11-dimethyl-3,4,7,9,12-pentazatricyclo[8.4.0.02,6]tetradeca-1(10),2(6),4,7,11,13-hexaene] | < 1 | L (L (Likely)”: ER≥2.5) | M (M (Moderate permeability)”: 1≤A2B (B2A)≤5) | H (H (High permeability)”: A2B (B2A)>5) | L* (L (Low Cl)”: Hep Cl (mL/min/kg)<6.3) | – |
| Cc1n[nH]c2c1N=C(c1c(F)cccc1F)Nc1c-2cc(N2CCOC3(COC3)C2)nc1C [Example 38, 8-(5-(2,6-difluorophenyl)-3,7-dimethyl-1,6-dihydropyrazolo[4,3-d]pyrido[4,3-f][1,3]diazepin-9-yl)-2,5-dioxa-8-azaspiro[3.5]nonane] | < 1 | L (L (Likely)”: ER≥2.5) | M (M (Moderate permeability)”: 1≤A2B (B2A)≤5) | H (H (High permeability)”: A2B (B2A)>5) | L* (L (Low Cl)”: Hep Cl (mL/min/kg)<6.3) | – |
| Cc1n[nH]c2c1N=C(c1c(F)cccc1F)Nc1cnc(N3CCC4(CC3)COC4)cc1-2 [Example 42, 7-(5-(2,6-difluorophenyl)-3-methyl-1,6-dihydropyrazolo[4,3-d]pyrido[4,3-f][1,3]diazepin-9-yl)-2-oxa-7-azaspiro[3.5]nonane] | 1 to 100 | L (L (Likely)”: ER≥2.5) | M (M (Moderate permeability)”: 1≤A2B (B2A)≤5) | H (H (High permeability)”: A2B (B2A)>5) | L* (L (Low Cl)”: Hep Cl (mL/min/kg)<6.3) | – |
| Cc1nc(N2CC3(COC3)C2)cc2c1NC(c1c(F)cccc1F)=Nc1cn[nH]c1-2 [Example 43, 6-(5-(2,6-difluorophenyl)-7-methyl-1,6-dihydropyrazolo[4,3-d]pyrido[4,3-f][1,3]diazepin-9-y1)-2-oxa-6-azaspiro[3.3]heptane] | 1 to 100 | L (L (Likely)”: ER≥2.5) | M (M (Moderate permeability)”: 1≤A2B (B2A)≤5) | H (H (High permeability)”: A2B (B2A)>5) | L* (L (Low Cl)”: Hep Cl (mL/min/kg)<6.3) | – |
| Cc1n[nH]c2c1N=C(c1c(F)cccc1F)Nc1c-2cc(N2CCO[C@H]([C@@H](C)O)C2)nc1C [Example 45, (R)-1-((S)-4-(5-(2,6-difluorophenyl)-3,7-dimethyl-1,6-dihydropyrazolo[4,3-d]pyrido[4,3-f][1,3]diazepin-9-yl)morpholin-2-yl)ethan-1-ol] | 1 to 100 | L (L (Likely)”: ER≥2.5) | L (L (Low permeability)”: A2B (B2A)<1) | H (H (High permeability)”: A2B (B2A)>5) | L* (L (Low Cl)”: Hep Cl (mL/min/kg)<6.3) | – |
| Cc1n[nH]c2c1N=C(c1c(F)cccc1F)Nc1c-2cc(N2CCS(=O)(=O)CC2)nc1C [Example 46, 4-(5-(2,6-difluorophenyl)-3,7-dimethyl-1,6-dihydropyrazolo[4,3-d]pyrido[4,3-f][1,3]diazepin-9-yl)thiomorpholine 1,1-dioxide] | < 1 | L (L (Likely)”: ER≥2.5) | L (L (Low permeability)”: A2B (B2A)<1) | H (H (High permeability)”: A2B (B2A)>5) | L* (L (Low Cl)”: Hep Cl (mL/min/kg)<6.3) | – |
| Cc1n[nH]c2c1N=C(c1c(F)cccc1F)Nc1cnc(N3CCC(C#N)CC3)cc1-2 [Example 48, 1-(5-(2,6-difluorophenyl)-3-methyl-1,6-dihydropyrazolo[4,3-d]pyrido[4,3-f][1,3]diazepin-9-yl)piperidine-4-carbonitrile] | 1 to 100 | L (L (Likely)”: ER≥2.5) | M (M (Moderate permeability)”: 1≤A2B (B2A)≤5) | H (H (High permeability)”: A2B (B2A)>5) | I* (I (Intermediate Cl)”: 6.3≤Hep Cl (mL/min/kg)≤14.7) | – |
| Cc1cc(F)c(C2=Nc3cn[nH]c3-c3cc(N4CCOCC4)ncc3N2)c(F)c1 [Example 51, 4-(5-(2,6-difluoro-4-methylphenyl)-1,6-dihydropyrazolo[4,3-d]pyrido[4,3-f][1,3]diazepin-9-yl)morpholine] | 1 to 100 | L (L (Likely)”: ER≥2.5) | H (H (High permeability)”: A2B (B2A)>5) | H (H (High permeability)”: A2B (B2A)>5) | – | I (I (Intermediate Cl)”: 6.3≤Hep Cl (mL/min/kg)≤14.7) |
| N#C[C@@H]1CCCN(c2cc3c(cn2)NC(c2c(F)cccc2F)=Nc2c(Cl)n[nH]c2-3)C1 [Example 52, (R)-1-(3-chloro-5-(2,6-difluorophenyl)-1,6-dihydropyrazolo[4,3-d]pyrido[4,3-f][1,3]diazepin-9-y1)piperidine-3-carbonitrile] | < 1 | L (L (Likely)”: ER≥2.5) | M (M (Moderate permeability)”: 1≤A2B (B2A)≤5) | H (H (High permeability)”: A2B (B2A)>5) | – | I (I (Intermediate Cl)”: 6.3≤Hep Cl (mL/min/kg)≤14.7) |
| Fc1cccc(F)c1C1=Nc2c(Cl)n[nH]c2-c2cc(N3CC4CCC(C3)O4)ncc2N1 [Example 53, 3-(3-chloro-5-(2,6-difluorophenyl)-1,6-dihydropyrazolo[4,3-d]pyrido[4,3-f][1,3]diazepin-9-yl)-8-oxa-3-azabicyclo[3.2.1]octane] | < 1 | L (L (Likely)”: ER≥2.5) | M (M (Moderate permeability)”: 1≤A2B (B2A)≤5) | H (H (High permeability)”: A2B (B2A)>5) | – | I (I (Intermediate Cl)”: 6.3≤Hep Cl (mL/min/kg)≤14.7) |
